This passage reports melting point results from a melting point compilation (Tetko et al.; mined from patent text by program, amines drawn as free bases though some values may be those of a salt).

Usually melting point stands for the temperature, or range, at which the solid turns liquid.

Each structure is given as a SMILES string. Some results are limits rather than exact numbers.

`Cc1cc(-c2nnn(C)n2)cc(C)c1OCCCC(O)c1nccn1C` (centres undefined) gave a melting point of 151 to 154 °C. Under `CCOC(=O)Cc1c([N+](=O)[O-])cc(O)c2ccccc12` stands 96 to 100 °C. The result for `O=C(Nc1cccc2c1ncc1ccc(O)cc12)c1c(Cl)cccc1Cl` reads > 250 °C; that for `CC1COc2c(N3CCC(NC(=O)OC(C)(C)C)C3)c(F)cc3c(=O)n(N)c(=O)n1c23` (centres undefined), 114 to 116 °C.

The molecule `COc1cc(N2CCN(Cc3ccccc3)CC2)c2ncccc2c1C` had a melting point of 129 to 133 °C.

`CN(C)C(=O)c1ccc(NC=O)cc1S(N)(=O)=O` showed a melting point of 192 to 193 °C. The result for `O=Cc1ccc2c(ccc3cc4ccccc4cc32)c1` reads 144 to 145 °C. For the molecule `O=C(Nc1ccccc1)c1ccccc1Nc1ncnc2[nH]cc(C(=O)c3ccccc3)c12`, the melting point is > 300 °C.

As to `CC(=O)NCCC1CCc2ccc3nc(CO)oc3c21` (centres undefined), the melting point fell in the range of 132 to 134 °C. The result for `CCCSc1cccc2c1C(=O)c1cccc(SCCC)c1C2=O` reads 232 to 233 °C; that for `CSc1cccc(NC(=O)NCC(=O)N2[C@@H](C(=O)OC(C)(C)C)C[C@H](C(=O)O)[C@H]2c2ccccc2)c1` (racemic), 130 °C. Consider `Cc1ccc(S(=O)(=O)OCCn2c([N+](=O)[O-])cnc2C=CN(C)C)cc1`, for which the melting point lay within 116 to 118 °C. The result for `COc1cc(NC(=O)Nc2cccc3c2C2CC(O)CCN2C3=O)nc2ccccc12` (centres undefined) reads > 260 °C; that for `O=C(CCc1ccccc1)N[C@H](Cc1ccc(Oc2ccccc2)cc1)[C@@H](O)c1ccc(F)cc1` (racemic), 108 to 110 °C. The molecule `CC1(C)OC(=O)C(c2ccc(-c3cscn3)cc2)=C1c1ccc(S(C)(=O)=O)cc1` yielded a melting point of 216 °C. `O=C(O)c1ccc2cnn(C3CCCC3)c2c1`: the melting point was 172 to 175 °C. `C#CC(=NOC)C(=O)OC` registered a melting point of 82 to 83 °C.

Molecule `CCc1cccc2c3c([nH]c12)C(CC)(CC(C)O)OCC3` (centres undefined) had a melting point of 103 to 104 °C.

Turning to `CC(=O)c1cc([N+](=O)[O-])c2c(c1)C(C)(C)CCO2`, the melting point is 117 to 119 °C.

`CCn1ncnc1COc1nn2c(-c3c(F)ccc(F)c3F)nncc2c1C(C)(C)C`: the melting point amounted to 42 °C. Under `CC(C(=O)O)(c1ccccc1)c1ccc(O)cc1` (centres undefined) stands 136 to 137 °C; under `Oc1ccc(-c2nc(Cn3ccnn3)cs2)cc1`, 164 to 166 °C; under `COc1cccc(CC(NC(=O)CCl)c2ccccc2)c1` (centres undefined), 104 to 105 °C. Under `CCCn1c(=S)c2[nH]c(C(C)C)nc2n(CCC)c1=O` stands 133 to 134 °C; under `C#CC1(O)CCN(C(C)=O)CC1`, 132 to 134 °C. Under `Cn1c(-c2ccc(-c3ccncc3)cc2)cnc1[C@H](Cc1ccccn1)N(C=O)c1cc2cc(Cl)ccc2o1` stands 135 to 140 °C; under `CCCc1ccc(NC(C)=O)cn1`, 122 to 124 °C; under `COc1cccc2c(CBr)coc12`, 91 to 93.5 °C. `OCCc1ccc(CCO)cc1` gave a melting point of 83 to 84 °C.

Molecule `COc1ccc(C=C2N=C(c3ccccc3I)OC2=O)cc1OC` showed a melting point of 200 to 202 °C. The result for `COc1cc(C(=O)NS(=O)(=O)c2ccccc2)ccc1Cc1csc2ccc(NC(=O)OC3CCCC3)cc12` reads 253 to 254 °C; that for `C[C@H](Nc1c(-c2c(F)cc(OCCCN(C)C)cc2F)c(Br)nc2ncnn12)C(F)(F)F`, 40 to 42 °C.

As to `COc1cccc2c1CCCC2(O)CN` (centres undefined), the melting point lay within 129 to 130 °C. Under `CC1C(=O)Oc2cc(N(Cc3ccccc3)Cc3ccccc3)ccc21` (centres undefined) stands 111 to 112 °C. `Cc1sc(-c2ccc(C(F)(F)F)cc2)nc1O` gave a melting point of 232 to 233 °C. The result for `CC(Oc1ccccc1[N+](=O)[O-])c1nnc(N)s1` (centres undefined) reads 137 to 142 °C; that for `CN(C)S(=O)(=O)c1cc2c(c(C(=O)O)c1)OC(C)(C)C2`, 211 to 212 °C; that for `O=C(O)c1cnc2cccc(O)c2c1`, > 260 °C.

`NC(=O)N(O)Cc1ccc(OCCc2csc(-c3ccc(C(F)(F)F)cc3)n2)cc1`: the melting point lay in the range of 146 to 147 °C. For the molecule `CCC(=O)O[C@H]1C[C@@H](C(=O)OC)[C@]2(C)CC[C@H]3C(=O)O[C@H](c4ccoc4)C[C@]3(C)[C@H]2C1=O`, the melting point lay in the range of 217 to 221 °C. The result for `COC(=O)CCC(=O)N(O)c1cccc(OCc2nc3ccccc3s2)c1` reads 123 to 125 °C; that for `Cc1nnc(CO)n1-c1ccc(Cl)cc1C(=O)c1ccccc1Cl`, 194 to 195 °C; that for `C#CCN1C(=O)C2CC2(c2ccc(N)cc2)C1=O` (centres undefined), 106 to 109 °C.

Consider `O=C(C1CCN(CCO)CC1)N1CCN2C(=O)OC(c3ccccc3)(c3ccccc3)C2C1` (centres undefined), for which the melting point lay in the range of 160 to 162 °C.

`CCN(CC)CCN1C(=O)c2cc(N)cc3cc([N+](=O)[O-])cc(c23)C1=O` had a melting point of 174 °C. The result for `O=CCOc1ccc(CCC(=O)O)cc1` reads 95 to 100 °C.

As to `Cc1cccc2cc3c(=O)n(Cc4ccccn4)cc(C(=O)NCCN(C)C)c3nc12`, the melting point was 183 to 184 °C. The result for `COc1ccc(-n2nc(OC(C)C)cc2-c2ccc(OCCO)cc2)cn1` reads 74 to 75 °C. The result for `CC(C)c1ccc(NC(=O)NCCc2ccccn2)cc1` reads 72 to 73 °C. The result for `CN1CC(CCN2CCN(c3ccc(F)cc3)CC2)OC1=O` (centres undefined) reads 82 to 84 °C. Turning to `Cc1cc(Oc2ccc(Cl)nn2)c(C)cc1N`, the melting point lay in the range of 138 to 140 °C. Regarding `O=C(Cn1c(-c2ccccc2)ccc(NC(=O)OCc2ccccc2)c1=O)NC(Cc1ccccc1)C(=O)C(F)(F)F` (centres undefined), the melting point was in the range of 178 to 181 °C. Under `CS(=O)(=O)c1ccccc1C1CCCC2(C1)C(=O)Nc1ccccc12` (centres undefined) stands 190 to 191 °C. Under `Cc1cccc(-c2[nH]c(C(C)C)nc2-c2ccc(F)c(-c3ccc(C(=O)NN4CCOCC4)cc3)c2)n1` stands 153 to 155 °C; under `O=CC(=Cc1cccc(Cl)c1)C(C=O)=Cc1cccc(Cl)c1`, 107 to 108 °C. `CN(C)CCC1(c2ccccc2)CCc2ccccc2C1=O` (centres undefined) came in with a melting point of 71 to 72 °C.

The molecule `CCCCc1ccc(NC(=O)CN(C)C)c(N)c1` displayed a melting point of 66 to 68 °C. Under `CSc1nccc(CC(=O)c2ccc(Cl)cc2Cl)n1` stands 105 to 107 °C; under `CCCCC[C@H]1CC[C@H](CCc2ccc(O)c(C#N)c2C#N)CC1`, 100 to 102 °C. Under `CCNc1nc(Cl)c(Br)c(NC2CC2)n1` stands 100 to 101 °C; under `COc1c(C)sc2nc(SCc3ccccc3)nn12`, 101 to 103 °C. Turning to `Nc1ccc(CCC(=O)Nc2cnc3ccccc3c2)cc1[N+](=O)[O-]`, the melting point was determined as 220 °C. Under `CN1CCC(c2c[nH]c3ccc(OS(=O)(=O)c4ccc(Cl)cc4)cc23)CC1` stands 182 to 184 °C. The result for `CCOC(=O)CC(=O)Cn1nc(CC)c(Oc2cc(Cl)cc(Cl)c2)c1CC` reads 82 to 84 °C. Under `CC(C)(C)c1ccc(-c2nnc(-c3ccc(C(=O)O)cc3N)o2)cc1` stands 266 to 268 °C; under `C=C(C)C(=O)NC(C)C`, 89 °C. `CCOC(=O)N(C)CCCC1c2cccc3c2N(CC3)c2ccccc2N1C(C)=O` (centres undefined) yielded a melting point of 125 to 128 °C. Under `OC1CSC(Oc2cncc(-c3ccnc(F)c3)c2)C(O)C1O` (centres undefined) stands 208 °C. The result for `CC(C)(Nc1ccc(Cc2ccccc2)cc1)C(=O)O` reads 130 °C; that for `CCc1ccc(NC(=O)c2sccc2S(=O)(=O)Nc2onc(C)c2Br)cc1`, 187 to 190 °C. The result for `N#Cc1c(OCc2ccc(F)cc2F)ccn(Cc2cccc(F)c2)c1=O` reads 187 to 190 °C; that for `CCOc1cc2ncc(C#N)c(Nc3ccc(OCc4ccccc4)c(Cl)c3)c2cc1NC(=O)CC(CN(C)C)N(C)C` (centres undefined), 102 to 104 °C. Molecule `O=Cc1cc([N+](=O)[O-])ccc1OC(F)(F)F` had a melting point of 32 to 34 °C.

`COc1ccccc1C(=O)Nc1cc(C)ccc1C#N` had a melting point of 147 to 149 °C. Under `CCCCCS(=O)(=O)NC(=O)CCc1ccc(OC(C)C)cc1OCc1ccc(Cl)cc1Cl` stands 120 °C.

For the molecule `Cc1cccc(N2CCN(CCc3ccc(-c4cccc(N)n4)cc3)CC2)c1`, the melting point is 158 to 160 °C. Under `CC(C)(OCc1cc2nc(Cl)ccc2n1S(=O)(=O)c1cccc(Cl)c1Cl)C(=O)O` stands 174 °C; under `CN1C(=O)[C@H](NC(=O)c2ccccc2)N=C(c2ccccc2)c2ccccc21`, 224 to 225 °C. Under `CCCC(=O)OCC(=O)C1(OC(C)=O)CCC2C3CC(C)C4=CC(=O)CCC4(C)C3C(O)CC21C` (centres undefined) stands 98 to 120 °C.

`COc1ccccc1[C@H](c1cccc2ccccc12)[C@@](C)(C#N)C(=O)N1CCN(c2cccc(C(F)(F)F)c2)CC1`: the melting point lay within 158 to 162 °C.

As to `CC(C)(C)C(NC(=O)c1cccc(I)c1)Nc1c(Nc2cccnc2)c(=O)c1=O` (centres undefined), the melting point lay in the range of 234 to 236 °C. Consider `CCOC(=O)c1cnc2n(c1=O)C(C)CCC2=NNC(=O)c1ccc2c(c1)OCO2` (centres undefined), for which the melting point is 183 to 185 °C. Under `O=C1c2ccccc2C(Nc2ccccc2)N1CCCN1CC=C(c2ccccc2)CC1` (centres undefined) stands 119 °C. Under `CCc1cccc(C)c1CNc1cc(CNC)cn2nc(C)nc12` stands 179 °C; under `O=C1OCCC1=Cc1ccccc1OCC1CO1` (centres undefined), 68 to 70 °C. The result for `C=CCSC(=S)c1cc(C(C)(C)C)c(O)c(C(C)(C)C)c1` reads 93 to 95 °C; that for `O=C(NCCO)/C(=C/c1ccc(C(F)(F)F)cc1F)NC(=O)c1ccc(OCCC(F)(F)F)cc1`, 203 to 205 °C; that for `COc1ncc(-c2cc(C=CC(=O)c3ccc(C(=O)O)cc3)c(OC)cc2OC)c(OC)n1`, 203 to 205 °C.

For `O=C1NC(Cc2c[nH]c3ccccc23)C(=O)N1CCCN1CCOCC1` (centres undefined), the melting point fell in the range of 158 to 160 °C.
